Read-outs that look alike come from different tables or passages of the source.
What was measured:
Assay in all cases: KINOMEscan ScanTK
Format in all cases: binding
[1] = molecular target: T1, ABL1(F317I)-nonphosphorylated (Homo sapiens, UniProt P00519, F317I)
T1 construct: purchased Eurofins DiscoverX KINOMEscan (scanTK)

TEC = molecular target: T2, TEC (Homo sapiens, UniProt P42680)
T2 construct: purchased Eurofins DiscoverX KINOMEscan (scanTK)
T2 sequence (P42680 1-631): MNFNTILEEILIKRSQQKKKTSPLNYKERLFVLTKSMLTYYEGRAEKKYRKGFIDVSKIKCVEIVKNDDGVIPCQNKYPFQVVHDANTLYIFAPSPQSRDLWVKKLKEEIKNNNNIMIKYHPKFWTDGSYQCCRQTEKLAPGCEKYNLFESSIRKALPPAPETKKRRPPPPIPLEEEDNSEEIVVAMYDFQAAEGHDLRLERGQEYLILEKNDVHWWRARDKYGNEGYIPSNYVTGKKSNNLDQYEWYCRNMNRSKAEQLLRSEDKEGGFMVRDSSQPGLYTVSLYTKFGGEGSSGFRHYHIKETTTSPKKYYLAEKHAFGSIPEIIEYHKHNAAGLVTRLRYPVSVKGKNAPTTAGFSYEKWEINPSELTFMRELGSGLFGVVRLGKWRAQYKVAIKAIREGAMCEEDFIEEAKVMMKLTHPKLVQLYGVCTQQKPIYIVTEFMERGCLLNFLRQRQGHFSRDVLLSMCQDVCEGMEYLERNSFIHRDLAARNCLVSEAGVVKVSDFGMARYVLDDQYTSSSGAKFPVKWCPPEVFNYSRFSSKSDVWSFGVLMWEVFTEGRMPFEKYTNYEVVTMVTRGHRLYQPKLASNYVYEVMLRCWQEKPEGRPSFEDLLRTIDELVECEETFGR

AXL = molecular target: T3, AXL (Homo sapiens, UniProt P30530)
T3 construct: purchased Eurofins DiscoverX KINOMEscan (scanTK)
T3 sequence (P30530 26-894): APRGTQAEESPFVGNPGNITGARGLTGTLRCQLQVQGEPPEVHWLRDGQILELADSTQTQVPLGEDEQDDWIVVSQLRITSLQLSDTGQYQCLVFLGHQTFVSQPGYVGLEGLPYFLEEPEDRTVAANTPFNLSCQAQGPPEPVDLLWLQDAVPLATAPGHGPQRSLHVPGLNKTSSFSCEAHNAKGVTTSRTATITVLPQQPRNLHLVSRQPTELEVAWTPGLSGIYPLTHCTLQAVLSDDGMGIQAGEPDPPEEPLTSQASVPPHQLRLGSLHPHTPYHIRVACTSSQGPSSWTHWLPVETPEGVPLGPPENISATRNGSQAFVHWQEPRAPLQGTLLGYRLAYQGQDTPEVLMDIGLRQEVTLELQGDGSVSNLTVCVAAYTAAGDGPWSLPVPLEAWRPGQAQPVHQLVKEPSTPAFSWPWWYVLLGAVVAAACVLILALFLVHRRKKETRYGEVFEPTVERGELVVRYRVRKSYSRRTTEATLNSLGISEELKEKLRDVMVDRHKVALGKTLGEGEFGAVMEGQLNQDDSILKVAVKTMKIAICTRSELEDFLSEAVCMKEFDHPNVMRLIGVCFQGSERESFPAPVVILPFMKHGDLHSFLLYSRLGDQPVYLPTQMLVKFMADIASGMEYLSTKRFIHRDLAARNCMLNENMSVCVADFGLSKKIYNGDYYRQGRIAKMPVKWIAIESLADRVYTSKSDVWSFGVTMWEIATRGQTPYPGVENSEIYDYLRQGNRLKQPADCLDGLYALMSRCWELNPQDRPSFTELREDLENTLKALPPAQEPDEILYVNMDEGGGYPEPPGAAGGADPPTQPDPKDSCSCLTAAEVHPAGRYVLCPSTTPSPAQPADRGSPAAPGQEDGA

EPHB6 = molecular target: T4, EPHB6 (Homo sapiens, UniProt O15197)
T4 construct: purchased Eurofins DiscoverX KINOMEscan (scanTK)
T4 sequence (O15197 32-1021): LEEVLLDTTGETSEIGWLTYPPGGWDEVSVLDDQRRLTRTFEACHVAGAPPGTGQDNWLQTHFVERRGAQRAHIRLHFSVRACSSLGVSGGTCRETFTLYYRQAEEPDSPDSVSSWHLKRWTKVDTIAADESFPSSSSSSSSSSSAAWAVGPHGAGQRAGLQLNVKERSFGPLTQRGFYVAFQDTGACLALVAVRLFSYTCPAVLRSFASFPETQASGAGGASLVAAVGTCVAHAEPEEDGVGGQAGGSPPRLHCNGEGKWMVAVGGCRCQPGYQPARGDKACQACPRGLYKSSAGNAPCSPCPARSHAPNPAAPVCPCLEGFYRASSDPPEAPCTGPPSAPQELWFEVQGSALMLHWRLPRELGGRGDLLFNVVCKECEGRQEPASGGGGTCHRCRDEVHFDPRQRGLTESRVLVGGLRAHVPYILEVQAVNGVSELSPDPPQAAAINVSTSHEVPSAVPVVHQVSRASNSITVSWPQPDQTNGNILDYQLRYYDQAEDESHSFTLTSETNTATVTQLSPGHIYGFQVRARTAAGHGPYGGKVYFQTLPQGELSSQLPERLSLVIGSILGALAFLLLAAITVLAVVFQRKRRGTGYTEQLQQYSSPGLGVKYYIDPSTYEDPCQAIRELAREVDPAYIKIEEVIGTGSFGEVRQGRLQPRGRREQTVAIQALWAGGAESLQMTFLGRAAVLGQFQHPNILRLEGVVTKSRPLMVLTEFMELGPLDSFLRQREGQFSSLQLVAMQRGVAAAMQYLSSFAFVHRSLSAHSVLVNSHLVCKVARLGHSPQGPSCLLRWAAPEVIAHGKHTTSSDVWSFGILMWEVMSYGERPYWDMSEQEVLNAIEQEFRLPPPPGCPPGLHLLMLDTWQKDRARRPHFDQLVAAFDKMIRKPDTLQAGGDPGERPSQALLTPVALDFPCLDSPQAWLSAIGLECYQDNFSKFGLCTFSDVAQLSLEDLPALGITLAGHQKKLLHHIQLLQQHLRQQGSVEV

SYK = molecular target: T5, SYK (Homo sapiens, UniProt P43405)
T5 construct: purchased Eurofins DiscoverX KINOMEscan (scanTK)

ALK(C1156Y) = molecular target: T6, ALK(C1156Y) (Homo sapiens, UniProt Q9UM73, C1156Y)
T6 construct: purchased Eurofins DiscoverX KINOMEscan (scanTK)
T6 sequence (Q9UM73 19-1620 C1156Y): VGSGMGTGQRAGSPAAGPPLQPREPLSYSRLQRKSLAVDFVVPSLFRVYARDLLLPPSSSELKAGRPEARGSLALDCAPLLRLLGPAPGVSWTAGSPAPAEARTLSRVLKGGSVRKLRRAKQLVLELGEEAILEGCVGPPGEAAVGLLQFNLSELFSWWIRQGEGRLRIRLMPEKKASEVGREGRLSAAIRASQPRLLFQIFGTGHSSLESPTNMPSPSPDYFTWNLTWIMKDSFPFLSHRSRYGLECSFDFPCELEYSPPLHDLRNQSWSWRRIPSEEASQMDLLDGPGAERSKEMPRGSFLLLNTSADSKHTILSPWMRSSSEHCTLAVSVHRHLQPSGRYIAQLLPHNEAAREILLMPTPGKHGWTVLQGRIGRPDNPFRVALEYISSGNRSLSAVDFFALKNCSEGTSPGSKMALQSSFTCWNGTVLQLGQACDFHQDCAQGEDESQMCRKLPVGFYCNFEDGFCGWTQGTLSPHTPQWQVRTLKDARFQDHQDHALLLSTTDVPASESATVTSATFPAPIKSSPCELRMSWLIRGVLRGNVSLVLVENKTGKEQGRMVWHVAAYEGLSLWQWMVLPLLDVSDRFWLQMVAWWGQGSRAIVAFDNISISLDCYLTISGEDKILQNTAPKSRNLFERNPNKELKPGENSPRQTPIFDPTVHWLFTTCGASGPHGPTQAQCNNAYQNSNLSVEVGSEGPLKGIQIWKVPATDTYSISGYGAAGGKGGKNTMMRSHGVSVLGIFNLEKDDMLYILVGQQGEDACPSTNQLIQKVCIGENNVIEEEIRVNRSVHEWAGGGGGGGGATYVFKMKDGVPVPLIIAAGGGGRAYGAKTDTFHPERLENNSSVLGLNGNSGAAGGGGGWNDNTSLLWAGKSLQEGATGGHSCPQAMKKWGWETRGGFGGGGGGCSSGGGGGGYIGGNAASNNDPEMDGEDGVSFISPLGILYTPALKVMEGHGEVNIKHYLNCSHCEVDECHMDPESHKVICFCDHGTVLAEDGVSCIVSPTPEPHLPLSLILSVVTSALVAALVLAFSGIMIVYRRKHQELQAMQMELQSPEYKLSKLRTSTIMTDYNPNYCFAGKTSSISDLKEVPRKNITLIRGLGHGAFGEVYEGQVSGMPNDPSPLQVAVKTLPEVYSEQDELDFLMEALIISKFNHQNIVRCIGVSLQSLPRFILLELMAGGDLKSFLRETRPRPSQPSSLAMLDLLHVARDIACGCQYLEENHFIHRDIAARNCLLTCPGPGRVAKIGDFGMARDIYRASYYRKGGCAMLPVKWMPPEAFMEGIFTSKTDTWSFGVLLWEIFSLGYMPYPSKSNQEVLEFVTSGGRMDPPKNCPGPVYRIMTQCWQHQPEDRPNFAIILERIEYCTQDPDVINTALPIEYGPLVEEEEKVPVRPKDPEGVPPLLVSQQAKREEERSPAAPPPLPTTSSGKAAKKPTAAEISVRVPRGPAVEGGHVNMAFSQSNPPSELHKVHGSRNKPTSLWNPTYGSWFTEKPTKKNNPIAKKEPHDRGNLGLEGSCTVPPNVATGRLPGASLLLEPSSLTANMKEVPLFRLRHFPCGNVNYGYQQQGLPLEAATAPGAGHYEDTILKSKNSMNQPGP

LCK = molecular target: T7, LCK (Homo sapiens, UniProt P06239)
T7 construct: purchased Eurofins DiscoverX KINOMEscan (scanTK)
T7 sequence (P06239 whole entry): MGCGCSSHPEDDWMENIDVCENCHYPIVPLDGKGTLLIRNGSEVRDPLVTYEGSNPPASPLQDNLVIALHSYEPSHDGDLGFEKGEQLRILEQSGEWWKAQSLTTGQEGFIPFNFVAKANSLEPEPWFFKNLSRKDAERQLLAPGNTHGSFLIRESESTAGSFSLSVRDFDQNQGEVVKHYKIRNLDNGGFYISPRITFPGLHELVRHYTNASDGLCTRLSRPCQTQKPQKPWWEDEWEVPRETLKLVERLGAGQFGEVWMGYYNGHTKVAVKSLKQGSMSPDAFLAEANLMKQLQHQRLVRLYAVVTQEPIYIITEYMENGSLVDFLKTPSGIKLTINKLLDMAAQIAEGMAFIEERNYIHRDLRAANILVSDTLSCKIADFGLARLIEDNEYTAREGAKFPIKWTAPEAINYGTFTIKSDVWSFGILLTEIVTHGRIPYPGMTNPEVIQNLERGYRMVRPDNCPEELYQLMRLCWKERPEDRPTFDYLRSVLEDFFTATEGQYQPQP

T1 sequence (P00519 whole entry F317I): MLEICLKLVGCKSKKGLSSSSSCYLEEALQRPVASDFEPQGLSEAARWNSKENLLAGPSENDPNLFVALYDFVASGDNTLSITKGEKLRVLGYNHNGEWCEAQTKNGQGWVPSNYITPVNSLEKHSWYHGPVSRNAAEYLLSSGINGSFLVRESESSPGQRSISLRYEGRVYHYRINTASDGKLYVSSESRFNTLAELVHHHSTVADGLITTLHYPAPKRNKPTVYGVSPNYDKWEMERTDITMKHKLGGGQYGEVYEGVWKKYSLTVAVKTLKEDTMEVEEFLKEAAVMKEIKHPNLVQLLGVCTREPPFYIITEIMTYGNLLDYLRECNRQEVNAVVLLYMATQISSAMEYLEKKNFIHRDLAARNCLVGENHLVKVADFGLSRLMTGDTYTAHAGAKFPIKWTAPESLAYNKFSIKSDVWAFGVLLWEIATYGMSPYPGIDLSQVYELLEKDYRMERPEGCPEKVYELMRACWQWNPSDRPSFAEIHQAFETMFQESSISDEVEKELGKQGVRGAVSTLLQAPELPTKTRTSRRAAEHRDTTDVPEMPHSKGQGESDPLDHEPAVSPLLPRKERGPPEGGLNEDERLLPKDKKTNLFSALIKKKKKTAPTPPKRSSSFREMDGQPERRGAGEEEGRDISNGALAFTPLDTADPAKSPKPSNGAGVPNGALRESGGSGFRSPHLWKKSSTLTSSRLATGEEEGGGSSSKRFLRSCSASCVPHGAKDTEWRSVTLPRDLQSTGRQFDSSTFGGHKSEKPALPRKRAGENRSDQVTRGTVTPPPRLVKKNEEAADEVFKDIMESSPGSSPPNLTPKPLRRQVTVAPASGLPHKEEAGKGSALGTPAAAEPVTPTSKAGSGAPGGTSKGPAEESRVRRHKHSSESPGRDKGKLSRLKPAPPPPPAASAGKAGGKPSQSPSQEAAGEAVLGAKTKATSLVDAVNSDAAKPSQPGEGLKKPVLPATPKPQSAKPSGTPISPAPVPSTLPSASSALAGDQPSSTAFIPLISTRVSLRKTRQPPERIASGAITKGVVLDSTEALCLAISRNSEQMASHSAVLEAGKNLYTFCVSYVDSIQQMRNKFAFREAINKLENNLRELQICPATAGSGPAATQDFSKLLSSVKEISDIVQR

Row | remaining binding at 1 µM ([1]; @1000nM, read-out: %Control) | remaining binding at 1 µM ([1]; read-out: %Control @1000nM) | remaining binding at 1 µM (TEC; @1000nM, read-out: %Control) | remaining binding at 1 µM (TEC; read-out: %Control @1000nM) | remaining binding at 1 µM (AXL; @1000nM, read-out: %Control) | remaining binding at 1 µM (AXL; read-out: %Control @1000nM) | remaining binding at 1 µM (EPHB6; @1000nM, read-out: %Control) | remaining binding at 1 µM (EPHB6; read-out: %Control @1000nM) | remaining binding at 1 µM (SYK; @1000nM, read-out: %Control) | remaining binding at 1 µM (SYK; read-out: %Control @1000nM) | remaining binding at 1 µM (ALK(C1156Y); @1000nM, read-out: %Control) | remaining binding at 1 µM (ALK(C1156Y); read-out: %Control @1000nM) | difference in %Control versus compound Ib at 1 µM ([1]; @1000nM) | difference in %Control versus compound Ib at 1 µM (AXL; @1000nM) | difference in %Control versus compound Ib at 1 µM (EPHB6; @1000nM) | remaining binding at 1 µM (LCK; @1000nM, read-out: %Control) | remaining binding at 1 µM (LCK; read-out: %Control @1000nM) | difference in %Control versus compound Ib at 1 µM (SYK; @1000nM) | difference in %Control versus compound Ib at 1 µM (ALK(C1156Y); @1000nM) | Structure (SMILES)
1 | 81% | 81% | 27% | 27% | 100% | 100% | 24% | 24% | 84% | 84% | 85% | 85% | 29% | 25% | 6% | 2% | 2% | -7% | -13% | Cc1cnc(S(C)(=O)=O)nc1N1CCCC(n2nc(-c3ccc(Oc4ccccc4)cc3)c3c(N)ncnc32)C1 (stereo not shown) [Compound 8a, 1-(1-(5-Methyl-2-(methylsulfonyl)pyrimidin-4-yl)piperidin-3-yl)-3-(4-phenoxyphenyl)-1H-pyrazolo[3,4-d]pyrimidin-4-amine]
2 | 82% | 82% | 32% | 32% | 100% | 100% | 8.9% | 8.9% | 78% | 78% | 90% | 90% | 30% | 25% | -9.1% | 8.3% | 8.3% | -13% | -8% | COC(=O)c1cnc(S(C)(=O)=O)nc1N1CCCC(n2nc(-c3ccc(Oc4ccccc4)cc3)c3c(N)ncnc32)C1 (stereo not shown) [Compound 8b, Methyl 4-(3-(4-Amino-3-(4-phenoxyphenyl)-1H-pyrazolo[3,4-d]pyrimidin-1-yl)piperidin-1-yl)-2-(methylsulfonyl)pyrimidine-5-carboxylate]
3 | 98% | 98% | 53% | 53% | 100% | 100% | 72% | 72% | 100% | 100% | 90% | 90% | 46% | 25% | 54% | 25% | 25% | 9% | -8% | CCOC(=O)c1cnc(S(C)(=O)=O)nc1N1CCC[C@@H](n2nc(-c3ccc(Oc4ccccc4)cc3)c3c(N)ncnc32)C1 [Compound 8c, Ethyl (R)-4-(3-(4-Amino-3-(4-phenoxyphenyl)-1H-pyrazolo[3,4-d]pyrimidin-1-yl)piperidin-1-yl)-2-(methylsulfonyl)pyrimidine-5-carboxylate]

Row | Structure (SMILES) | remaining binding at 1 µM ([1]; @1000nM, read-out: %Control) | remaining binding at 1 µM ([1]; read-out: %Control @1000nM) | remaining binding at 1 µM (TEC; @1000nM, read-out: %Control) | remaining binding at 1 µM (TEC; read-out: %Control @1000nM) | remaining binding at 1 µM (AXL; @1000nM, read-out: %Control) | remaining binding at 1 µM (AXL; read-out: %Control @1000nM) | remaining binding at 1 µM (EPHB6; @1000nM, read-out: %Control) | remaining binding at 1 µM (EPHB6; read-out: %Control @1000nM) | remaining binding at 1 µM (SYK; @1000nM, read-out: %Control) | remaining binding at 1 µM (SYK; read-out: %Control @1000nM) | remaining binding at 1 µM (ALK(C1156Y); @1000nM, read-out: %Control) | remaining binding at 1 µM (ALK(C1156Y); read-out: %Control @1000nM) | difference in %Control versus compound Ib at 1 µM ([1]; @1000nM) | difference in %Control versus compound Ib at 1 µM (AXL; @1000nM) | difference in %Control versus compound Ib at 1 µM (EPHB6; @1000nM) | remaining binding at 1 µM (LCK; @1000nM, read-out: %Control) | remaining binding at 1 µM (LCK; read-out: %Control @1000nM) | difference in %Control versus compound Ib at 1 µM (SYK; @1000nM) | difference in %Control versus compound Ib at 1 µM (ALK(C1156Y); @1000nM)
4 | C=CC(=O)N1CCC[C@@H](n2nc(-c3ccc(Oc4ccccc4)cc3)c3c(N)ncnc32)C1 [Compound 1g, Ibrutinib, reference compound] | 52% | 52% | 20% | 20% | 75% | 75% | 18% | 18% | 91% | 91% | 98% | 98% |  |  |  |  |  |  | 
5 | CNC(=O)c1cnc(S(C)(=O)=O)nc1N1CCCC(n2nc(-c3ccc(Oc4ccccc4)cc3)c3c(N)ncnc32)C1 (stereo not shown) [Compound 8d, 4-(3-(4-Amino-3-(4-phenoxyphenyl)-1H-pyrazolo[3,4-d]pyrimidin-1-yl)piperidin-1-yl)-N-methyl-2-(methylsulfonyl)pyrimidine-5-carboxamide] | 85% | 85% | 40% | 40% | 97% | 97% | 34% | 34% | 89% | 89% | 88% | 88% | 33% | 22% | 16% | 4% | 4% | -2% | -10%

— article PMC11345841, “Exploring 2-Sulfonylpyrimidine Warheads as Acrylamide Surrogates for Targeted Covalent Inhibition: A BTK Story” (Journal of Medicinal Chemistry, 2024)
